Measurements reported in ChEMBL document CHEMBL1156558, “Improvement of the transactivation activity of phenylpropanoic acid-type peroxisome proliferator-activated receptor pan agonists: effect of introduction of fluorine at the linker part” (Bioorg Med Chem Lett, 2008).

Key:
Assay type in all cases: functional, cell-based
[1] = target: T1, Peroxisome proliferator-activated receptor alpha (Homo sapiens, UniProt Q07869); assay: Agonist activity at PPARalpha transfected in HEK293 cells by GAL4 transactivation assay
T1 sequence (Q07869 whole entry): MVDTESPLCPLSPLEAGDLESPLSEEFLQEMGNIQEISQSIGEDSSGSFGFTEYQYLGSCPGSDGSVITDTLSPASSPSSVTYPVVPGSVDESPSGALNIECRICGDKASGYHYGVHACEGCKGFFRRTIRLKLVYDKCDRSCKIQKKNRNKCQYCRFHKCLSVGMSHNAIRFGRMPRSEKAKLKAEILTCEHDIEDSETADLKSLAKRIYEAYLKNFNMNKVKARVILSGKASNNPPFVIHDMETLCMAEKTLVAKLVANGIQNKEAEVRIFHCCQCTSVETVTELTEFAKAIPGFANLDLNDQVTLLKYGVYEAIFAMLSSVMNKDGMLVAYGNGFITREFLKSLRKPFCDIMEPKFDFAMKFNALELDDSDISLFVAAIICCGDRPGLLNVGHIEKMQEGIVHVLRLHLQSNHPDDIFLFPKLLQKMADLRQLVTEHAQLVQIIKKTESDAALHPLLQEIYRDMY

[2] = target: T2, Peroxisome proliferator-activated receptor delta (Homo sapiens, UniProt Q03181); assay: Agonist activity at PPARdelta transfected in HEK293 cells by GAL4 transactivation assay
T2 sequence (Q03181 whole entry): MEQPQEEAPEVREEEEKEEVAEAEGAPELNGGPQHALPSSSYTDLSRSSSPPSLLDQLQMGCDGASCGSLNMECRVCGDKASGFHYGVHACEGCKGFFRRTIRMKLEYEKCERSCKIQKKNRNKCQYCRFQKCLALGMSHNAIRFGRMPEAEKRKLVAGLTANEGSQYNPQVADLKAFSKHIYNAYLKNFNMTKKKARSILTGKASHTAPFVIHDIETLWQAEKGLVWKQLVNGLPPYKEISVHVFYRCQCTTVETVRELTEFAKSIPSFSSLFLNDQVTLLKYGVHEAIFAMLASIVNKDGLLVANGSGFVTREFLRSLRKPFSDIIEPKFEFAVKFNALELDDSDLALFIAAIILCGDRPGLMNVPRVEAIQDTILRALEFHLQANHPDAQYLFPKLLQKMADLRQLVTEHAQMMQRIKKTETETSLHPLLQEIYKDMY

[3] = target: T3, Peroxisome proliferator-activated receptor gamma (Homo sapiens, UniProt P37231); assay: Agonist activity at PPARgamma transfected in HEK293 cells by GAL4 transactivation assay
T3 sequence (P37231 whole entry): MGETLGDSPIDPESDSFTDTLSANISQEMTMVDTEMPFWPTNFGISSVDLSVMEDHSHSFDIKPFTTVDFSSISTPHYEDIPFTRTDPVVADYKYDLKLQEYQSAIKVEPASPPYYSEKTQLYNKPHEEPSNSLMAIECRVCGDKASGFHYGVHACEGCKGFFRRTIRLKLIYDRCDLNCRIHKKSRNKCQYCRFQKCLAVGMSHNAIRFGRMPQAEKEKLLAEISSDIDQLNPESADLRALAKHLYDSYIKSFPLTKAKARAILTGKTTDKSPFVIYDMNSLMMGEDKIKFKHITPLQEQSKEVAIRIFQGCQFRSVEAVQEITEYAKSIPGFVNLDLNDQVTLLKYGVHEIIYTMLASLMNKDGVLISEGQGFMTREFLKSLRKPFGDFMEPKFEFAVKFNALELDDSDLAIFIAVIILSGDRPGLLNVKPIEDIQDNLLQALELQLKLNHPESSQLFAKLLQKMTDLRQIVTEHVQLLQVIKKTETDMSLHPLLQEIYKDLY

SMILES | EC50 [1] [nM] | EC50 [2] [nM] | EC50 [3] [nM]
CCC(Cc1cc(F)c(OC)c(CNC(=O)c2ccc(C(F)(F)F)cc2)c1)C(=O)O (racemic) | 54 | 59 | > 10000
CCC(Cc1ccc(OC)c(CNC(=O)c2ccc(C(F)(F)F)cc2F)c1)C(=O)O (racemic) | 7.9 | 29 | 2600
CCC(Cc1cc(CNC(=O)c2ccc(C(F)(F)F)cc2)c(OC)cc1F)C(=O)O (racemic) | 3.6 | 20 | 1100
CCCOc1cc(F)c(CC(CC)C(=O)O)cc1CNC(=O)c1ccc(C23CC4CC(CC(C4)C2)C3)cc1 (racemic) | 17 | 60 | 15
CCC(Cc1ccc(OC)c(CNC(=O)c2ccc(C34CC5CC(CC(C5)C3)C4)cc2)c1)C(=O)O (racemic) | 53 | 940 | 110
CCCOc1ccc(C[C@H](CC)C(=O)O)cc1CNC(=O)c1ccc(C23CC4CC(CC(C4)C2)C3)cc1 | 58 |  | 

Continued, values first:

EC50 [1] [nM] | EC50 [2] [nM] | EC50 [3] [nM] | SMILES
7.1 | 94 | 24 | CCOc1cc(F)c(CC(CC)C(=O)O)cc1CNC(=O)c1ccc(C23CC4CC(CC(C4)C2)C3)cc1 (racemic)
13 | 280 | 36 | CCC(Cc1cc(CNC(=O)c2ccc(C34CC5CC(CC(C5)C3)C4)cc2)c(OC)cc1F)C(=O)O (racemic)
200 | 180 | 160 | CCCOc1cc(F)c(C[C@@H](CC)C(=O)O)cc1CNC(=O)c1ccc(C23CC4CC(CC(C4)C2)C3)cc1F
260 | 2200 | 190 | CCC(Cc1cc(F)c(OC)c(CNC(=O)c2ccc(C34CC5CC(CC(C5)C3)C4)cc2)c1)C(=O)O (racemic)
12 | 25 | 38 | CCCOc1cc(F)c(C[C@H](CC)C(=O)O)cc1CNC(=O)c1ccc(C23CC4CC(CC(C4)C2)C3)cc1F
13 | 28 | 35 | CCCOc1cc(F)c(CC(CC)C(=O)O)cc1CNC(=O)c1ccc(C23CC4CC(CC(C4)C2)C3)cc1F (racemic)
7.5 | 55 | 22 | CCOc1cc(F)c(CC(CC)C(=O)O)cc1CNC(=O)c1ccc(C23CC4CC(CC(C4)C2)C3)cc1F (racemic)
60 | 550 | 140 | CCC(Cc1ccc(OC)c(CNC(=O)c2ccc(C34CC5CC(CC(C5)C3)C4)cc2F)c1)C(=O)O (racemic)
